From PMC11310081, “Deep-learning-enabled antibiotic discovery through molecular de-extinction” (Nature Biomedical Engineering, 2024) come the findings set out here.

Values after ≈ are worked out from the molar mass of the structure shown. Read-outs that look alike come from different tables or passages of the source. Peptide text beside a SMILES is read from it. Some results are limits rather than exact numbers.

Usually CC50 stands for the concentration at which the toxic effect on the cells reaches its halfway point. Read a high CC50 as lower toxicity to the cells.

One data set concerns HEK293T cells. How it is done:
HEK293T cells were obtained from the American Type Culture Collection (CRL-3216). The cells were cultured in high-glucose Dulbecco’s modified Eagle’s medium supplemented with 1% penicillin and streptomycin (antibiotics) and 10% fetal bovine serum and grown at 37 °C in a humidified atmosphere containing 5% CO2.
One day before the experiment, an aliquot of 100 μl of the cells at 50,000 cells per ml was seeded into each well of the cell-treated 96-well plates used in the experiment (that is, 5,000 cells per well). […] After the incubation period, we performed the 3-(4,5-dimethylthiazol-2-yl)-2,5-diphenyltetrazolium bromide tetrazolium reduction assay (MTT assay)[53]. The MTT reagent was dissolved at 0.5 mg ml^−1 in medium without phenol red and was used to replace cell culture supernatants containing the peptides (100 μl per well), and the samples were incubated for 4 h at 37 °C in a humidified atmosphere containing 5% CO2 yielding the insoluble formazan salt. The resulting salts were then resuspended in hydrochloric acid (0.04 mol l^−1) in anhydrous isopropanol and quantified by spectrophotometric measurements of absorbance at 570 nm. All assays were done as three biological replicates.
Unless otherwise stated, all assays were performed in three independent biological replicates as indicated in each figure legend and Methods sections. The cytotoxic activities values were estimated using non-linear regression based on the range of concentrations screened and were shown as the values that cause lysis of 50% of the cells in the experiment. Two technical replicates were performed in the cytotoxicity assays within each of the three biological replicates.

In data set [1] the test system is 11 clinically relevant bacterial pathogens. It is filed as cell-based. The following applies: Supplementary Dataset 2; against the 11 pathogens tested. An excerpt:
(§1) The following Gram-negative bacteria were used in our study: A. baumannii ATCC 19606, E. coli ATCC 11775, E. coli AIC221 (E. coli MG1655 phnE_2::FRT), E. coli AIC222 (E. coli MG1655 pmrA53 phnE_2::FRT (colistin resistant)), K. pneumoniae ATCC 13883, P. aeruginosa PAO1 and P. aeruginosa PA14. The following Gram-positive bacteria were also used in our study: S. aureus ATCC 12600, S. aureus ATCC BAA-1556 (methicillin-resistant strain), E. faecalis ATCC 700802 (vancomycin-resistant strain) and E. faecium ATCC 700221 (vancomycin-resistant strain). Bacteria were grown from frozen stocks and plated on Luria–Bertani (LB) or Pseudomonas isolation agar plates (P. aeruginosa strains) and incubated overnight at 37 °C. After the incubation period, a single colony was transferred to 5 ml of LB medium, and cultures were incubated overnight (16 h) at 37 °C. The following day, an inoculum was prepared by diluting the overnight cultures 1:100 in 5 ml of the respective media and incubating them at 37 °C until bacteria reached logarithmic phase (OD600 = 0.3–0.5).
(§2) The in vitro antimicrobial activity of the peptides was assessed by using the broth microdilution assay. […] Aqueous solutions of the peptides were added to the plate at concentrations ranging from 1 to 64 μmol l^−1. […] The optical density of the plates was measured at 600 nm using a spectrophotometer. All assays were done as three biological replicates.

For a further data set, the system named is A. baumannii ATCC 19606. Type of data set: cell-based, Acinetobacter baumannii. The following applies: ATCC 19606, 20 h.
From the text: as §1, §2

`CC[C@H](C)[C@H](NC(=O)[C@H](CC(C)C)NC(=O)[C@@H](NC(=O)[C@H](CCCCN)NC(=O)[C@H](Cc1c[nH]c2ccccc12)NC(=O)[C@@H](NC(=O)[C@H](CCCCN)NC(=O)[C@H](CC(=O)O)NC(=O)[C@@H](NC(=O)[C@H](CC(C)C)NC(=O)[C@H](Cc1ccccc1)NC(=O)[C@H](C)NC(=O)CNC(=O)[C@@H](NC(=O)[C@@H](N)CCCCN)C(C)C)C(C)C)C(C)C)[C@@H](C)O)C(=O)O` [Anomalopterin-2] (H-KVGAFLVDKVWKTLI-OH; N-terminus and C-terminus assumed): in the data set with HEK293T cells (24 h), the CC50 is more than 128 µM. Moreover, the “Active or Inactive” value in data set [1] is “Active”. In the data set with A. baumannii ATCC 19606, the “Minimal inhibitory concentration, A. baumannii ATCC19606” value (from here on “Minimal inhibitory concentration”) came to 32 µM (≈ 54.9 µg/mL).

In the case of `CC[C@H](C)[C@H](N)C(=O)N[C@@H](CC(C)C)C(=O)N[C@@H](CC(C)C)C(=O)N[C@H](C(=O)N[C@H](C(=O)N[C@@H](C)C(=O)N[C@H](C(=O)N[C@@H](C)C(=O)N[C@H](C(=O)N[C@@H](CCCCN)C(=O)N[C@@H](CC(C)C)C(=O)NCC(=O)N[C@@H](CC(C)C)C(=O)O)[C@@H](C)CC)[C@@H](C)CC)[C@@H](C)O)[C@@H](C)O` [Ararin-1] (H-ILLTTAIAIKLGL-OH; N-terminus and C-terminus assumed), in the data set on HEK293T cells (24 h), the CC50 is more than 128 µM and the “TI (therapeutic index)” value is listed as more than 4. The “Active or Inactive” value in data set [1] is “Active”.

On to `CC[C@H](C)[C@H](NC(=O)[C@H](CCCCN)NC(=O)[C@H](CC(N)=O)NC(=O)[C@@H](NC(=O)[C@@H](NC(=O)[C@H](Cc1c[nH]c2ccccc12)NC(=O)[C@H](CC(C)C)NC(=O)[C@H](CCC(N)=O)NC(=O)[C@H](CC(C)C)NC(=O)[C@@H](NC(=O)[C@H](C)NC(=O)[C@H](CC(C)C)NC(=O)[C@@H](N)CCCNC(=N)N)[C@@H](C)O)[C@@H](C)O)[C@@H](C)CC)C(=O)N[C@H](C(=O)N[C@@H](CCCCN)C(=O)N[C@@H](CCC(N)=O)C(=O)N[C@@H](CC(C)C)C(=O)N[C@@H](CCSC)C(=O)N[C@H](C(=O)N1CCC[C@H]1C(=O)N[C@@H](CC(C)C)C(=O)N[C@@H](CC(N)=O)C(=O)N[C@@H](CCCCN)C(=O)N1CCC[C@H]1C(=O)NCC(=O)N[C@@H](Cc1c[nH]cn1)C(=O)N[C@@H](CCCCN)C(=O)O)[C@@H](C)CC)[C@@H](C)O` [Ararin-2] (H-RLATLQLWTINKITKQLMIPLNKPGHK-OH; N-terminus and C-terminus assumed), for which the CC50 with HEK293T cells (24 h) was more than 128 µM. Also, the “Active or Inactive” value in data set [1] is on record as “Active”. Besides, the “Minimal inhibitory concentration” value in the data set with A. baumannii ATCC 19606 was 16 µM (≈ 50.5 µg/mL).

For the molecule `CC[C@H](C)[C@H](NC(=O)[C@H](CC(C)C)NC(=O)[C@H](Cc1c[nH]cn1)NC(=O)[C@@H](NC(=O)[C@H](CC(C)C)NC(=O)[C@H](CC(C)C)NC(=O)[C@H](Cc1c[nH]cn1)NC(=O)CN)[C@@H](C)CC)C(=O)NCC(=O)N[C@@H](CCCCN)C(=O)N[C@@H](C)C(=O)N[C@H](C(=O)N[C@@H](CC(C)C)C(=O)N[C@@H](C)C(=O)N[C@@H](CC(C)C)C(=O)O)[C@@H](C)O` [Arctoterin-1] (H-GHLLIHLIGKATLAL-OH; N-terminus and C-terminus assumed), the 50% cytotoxic concentration (CC50) in the data set with HEK293T cells (24 h) is more than 128 µM. Further, in data set [1], the “Active or Inactive” value is given as “Active”. The “Minimal inhibitory concentration” value in the data set with A. baumannii ATCC 19606 was determined as 64 µM (≈ 100 µg/mL).

For the molecule `CC[C@H](C)[C@H](NC(=O)[C@H](CCCNC(=N)N)NC(=O)[C@H](Cc1c[nH]cn1)NC(=O)[C@H](CCCCN)NC(=O)[C@@H](NC(=O)CNC(=O)[C@H](CCCNC(=N)N)NC(=O)[C@H](C)NC(=O)[C@H](CCCCN)NC(=O)[C@@H](NC(=O)[C@H](C)NC(=O)[C@@H]1CCCN1C(=O)[C@H](CC(C)C)NC(=O)[C@H](CCC(N)=O)NC(=O)[C@H](CO)NC(=O)[C@H](Cc1ccccc1)NC(=O)[C@H](CC(C)C)NC(=O)[C@H](CC(C)C)NC(=O)[C@@H](NC(=O)[C@@H](N)CS)C(C)C)C(C)C)[C@@H](C)O)C(=O)N[C@@H](CCCCN)C(=O)N[C@@H](Cc1c[nH]c2ccccc12)C(=O)N[C@@H](CC(N)=O)C(=O)N[C@@H](CCCNC(=N)N)C(=O)N[C@@H](CCCCN)C(=O)O` [Equusin-4] (H-CVLLFSQLPAVKARGTKHRIKWNRK-OH; N-terminus and C-terminus assumed), in the data set with HEK293T cells (24 h), the CC50 was more than 128 µM and the “TI (therapeutic index)” value was more than 8. Moreover, the “Active or Inactive” value in data set [1] is “Active”. For the same molecule, the “Minimal inhibitory concentration” value in the data set with A. baumannii ATCC 19606 stood at 16 µM (≈ 47.2 µg/mL).

Turning to `CC[C@H](C)[C@H](NC(=O)[C@H](Cc1c[nH]cn1)NC(=O)[C@@H](N)CC(C)C)C(=O)NCC(=O)N[C@@H](CC(C)C)C(=O)N[C@H](C(=O)N[C@@H](CCCCN)C(=O)N[C@H](C(=O)N[C@@H](Cc1ccc(O)cc1)C(=O)N[C@@H](CC(C)C)C(=O)NCC(=O)N[C@@H](CO)C(=O)N[C@@H](Cc1ccccc1)C(=O)N[C@@H](C)C(=O)N[C@@H](CC(C)C)C(=O)O)[C@@H](C)O)[C@@H](C)CC` [Eudyptin-1] (H-LHIGLIKTYLGSFAL-OH; N-terminus and C-terminus assumed), in the data set with HEK293T cells (24 h), the CC50 is more than 128 µM and the “TI (therapeutic index)” value is more than 2. The “Active or Inactive” value in data set [1] was “Active”.

As for `CC[C@H](C)[C@H](NC(=O)[C@H](CCCCN)NC(=O)[C@H](CC(C)C)NC(=O)[C@H](CO)NC(=O)[C@@H](NC(=O)[C@H](CO)NC(=O)[C@H](CC(C)C)NC(=O)[C@H](CCCCN)NC(=O)[C@@H](NC(=O)[C@@H](NC(=O)[C@H](CC(N)=O)NC(=O)[C@@H](NC(=O)[C@@H](NC(=O)[C@@H](NC(=O)[C@H](Cc1c[nH]c2ccccc12)NC(=O)[C@@H](N)Cc1c[nH]cn1)[C@@H](C)CC)[C@@H](C)O)[C@@H](C)CC)[C@@H](C)O)[C@@H](C)CC)[C@@H](C)CC)C(=O)O` [Lophiosin-1] (H-HWITINTIKLSISLKI-OH; N-terminus and C-terminus assumed), the CC50 in the data set with HEK293T cells was 68.02 µM. Besides, in data set [1], the “Active or Inactive” value is “Active”.

`CC[C@H](C)[C@H](N)C(=O)N[C@@H](Cc1ccccc1)C(=O)N[C@@H](CC(C)C)C(=O)N[C@@H](Cc1c[nH]cn1)C(=O)N[C@@H](CC(C)C)C(=O)N[C@@H](CCCCN)C(=O)N[C@H](C(=O)N[C@@H](CC(C)C)C(=O)N[C@@H](CCCCN)C(=O)N[C@H](C(=O)N[C@H](C(=O)N[C@@H](Cc1c[nH]cn1)C(=O)N[C@@H](CC(C)C)C(=O)N[C@@H](CC(C)C)C(=O)O)[C@@H](C)CC)[C@@H](C)CC)[C@@H](C)O` [Mammuthusin-1] (H-IFLHLKTLKIIHLL-OH; N-terminus and C-terminus assumed) had a CC50 in the data set on HEK293T cells (24 h) of more than 128 µM. Moreover, the “Active or Inactive” value in data set [1] is “Active”. Also, the “Minimal inhibitory concentration” value in the data set on A. baumannii ATCC 19606 came to 8 µM (≈ 13.6 µg/mL).

As to `CC[C@H](C)[C@H](NC(=O)[C@H](Cc1ccccc1)NC(=O)[C@@H](N)CC(C)C)C(=O)NCC(=O)N[C@@H](CC(C)C)C(=O)N[C@H](C(=O)N[C@@H](CC(N)=O)C(=O)N[C@@H](CC(C)C)C(=O)N[C@@H](CC(C)C)C(=O)NCC(=O)N[C@@H](CC(C)C)C(=O)N[C@@H](CC(C)C)C(=O)O)[C@@H](C)O` [Mammuthusin-4] (H-LFIGLTNLLGLL-OH; N-terminus and C-terminus assumed), the CC50 in the data set on HEK293T cells (24 h) is more than 128 µM. In data set [1], the “Active or Inactive” value is “Active”.

For `CC[C@H](C)[C@H](N)C(=O)N[C@@H](CC(C)C)C(=O)N[C@H](C(=O)N[C@@H](CC(C)C)C(=O)N[C@@H](Cc1ccccc1)C(=O)N[C@H](C(=O)N[C@H](C(=O)N[C@@H](Cc1ccccc1)C(=O)N[C@@H](CCC(N)=O)C(=O)N[C@@H](CC(C)C)C(=O)N[C@@H](CCCCN)C(=O)N[C@H](C(=O)N[C@@H](CO)C(=O)N[C@@H](CCCCN)C(=O)N[C@@H](CC(C)C)C(=O)O)[C@@H](C)CC)[C@@H](C)CC)[C@@H](C)CC)[C@@H](C)O` [Paleopropin-2] (H-ILTLFIIFQLKISKL-OH; N-terminus and C-terminus assumed), in the data set with HEK293T cells (24 h), the cytotoxic concentration (CC50) was more than 128 µM and the “TI (therapeutic index)” value is listed as more than 8. Also, the “Active or Inactive” value in data set [1] is reported as “Active”.
